Results: patent publication US11959486B2, “Stable liquid formulation of AMG 416 (etelcalcetide)” (AMGEN INC., priority 2013, dated 2024)
Where two headings read alike, the source gives them in different places.

Assays:
[1] = Concentration dependent stability in 25 mM succinate-buffered saline pH 4.5, HPLC purity, with Arrhenius extrapolation (Example 2); assay type: physicochemical; settings: for Degradation at 29 days, 40 C / Degradation at 29 days, RT: pH 4.5; for Predicted extent of degradation at 1 yr 5° C. / Predicted extent of degradation at 1 yr RT / Predicted extent of degradation at 2 yr 5° C. / Predicted extent of degradation at 2 yr RT: pH 4.5 SBS, from RT 29-day data
Protocol: In this study, the stability of AMG 416 over a range of concentrations in succinate-buffered saline (pH 4.5) was investigated. The solution of […] AMG 416 from Example 1, supra, was diluted further with 200 μL of succinate-buffered saline (pH 4.5) to a nominal concentration of 200 mg/mL, which was serially diluted with succinate-buffered saline (pH 4.5) to 66, 20, 6.7, 2.2 and 0.67 mg/mL. The samples were kept at room temperature (i.e., about 25° C.) and aliquots were analyzed by HPLC at intervals up to 29 days. A second series of AMG 416 samples covering the concentration range 20 to 0.67 mg/mL were incubated at 40° C. and analyzed in the same manner.
The room temperature 29-day data from Table 1 was extrapolated to the stated time period by assuming linear degradation kinetics. Room temperature data was extrapolated to 5° C. A 20° C. difference was assumed, equivalent to a 4-fold lower rate of degradation. Extrapolations were carried out using a simple application of the Arrhenius equation, where at 10° C. rise in temperature provides a 2-fold increase in reaction rate, assuming the same reaction mechanism and that activation energy for each relevant reaction is around 50 kJ/mol.
Comparison of the data shown in Tables 1 and 2 allows assessment of temperature increase as a tool to predict the long-term stability of AMG 416 solutions.

[2] = 5 mg/mL
Protocol: In this study, the effects of various pharmaceutical excipients on the stability of AMG 416 in liquid formulation were determined. A 10 mg/mL solution of AMG 416 and stock solutions of mannitol, glycine, arginine, NaCl and Na2SO4 at 2× isotonic concentrations were prepared. The pH of the AMG 416 solution and the five excipient solutions and deionized water separately were adjusted to pH 3.5 using HCl/NaOH. 500 μL aliquots of each of the six solutions were added to glass vials and 500 μL of the AMG 416 solution was added to the same vials and mixed well. This was performed in triplicate to provided eighteen sample vials, each containing 5 mg/mL AMG 416 and an isotonic concentration of the excipient (or deionized water). This was repeated with a set of solutions adjusted to pH 4.5, providing a further eighteen sample vials. The samples were incubated and removed for HPLC analysis at relevant time points.

physchem = settings: succinate buffered saline, pH 4.5
Protocol: In this study, the solubility of AMG 416 in succinate buffered-saline was investigated. […] After briefly vortexing, a clear solution was obtained with a nominal concentration of 400 mg/mL. Because expansion of the solution volume was not determined, the solubility of AMG 416 can be conservatively stated as at least 200 mg/mL. Although the maximal solubility was not determined in this experiment, AMG 416 is soluble in pH 4.5 succinate buffered saline to concentrations of at least 200 mg/mL.

Compound: CC(=O)N[C@H](CSSC[C@H](N)C(=O)O)C(=O)N[C@H](C)C(=O)N[C@H](CCCNC(=N)N)C(=O)N[C@H](CCCNC(=N)N)C(=O)N[C@H](CCCNC(=N)N)C(=O)N[C@H](C)C(=O)N[C@H](CCCNC(=N)N)C(N)=O [AMG 416, N-acetyl-D-cysteinyl-D-alanyl-D-arginyl-D-arginyl-D-arginyl-D-alanyl-D-arginamide disulfide with L-cysteine]
- Degradation at 29 days, 40 C ([1]; 0.67 mg/mL): 5.0%
- Degradation at 29 days, RT ([1]; 0.67 mg/mL): 0.1%
- Predicted extent of degradation at 1 yr 5° C. ([1]; 0.67 mg/mL): 0.3%
- Predicted extent of degradation at 1 yr RT ([1]; 0.67 mg/mL): 1.4%
- Predicted extent of degradation at 2 yr 5° C. ([1]; 0.67 mg/mL): 0.7%
- Predicted extent of degradation at 2 yr RT ([1]; 0.67 mg/mL): 2.7%
- Degradation at 29 days, 40 C ([1]; 2.2 mg/mL): 5.0%
- Degradation at 29 days, RT ([1]; 2.2 mg/mL): 0.2%
- Predicted extent of degradation at 1 yr 5° C. ([1]; 2.2 mg/mL): 0.7%
- Predicted extent of degradation at 1 yr RT ([1]; 2.2 mg/mL): 2.6%
- Predicted extent of degradation at 2 yr 5° C. ([1]; 2.2 mg/mL): 1.3%
- Predicted extent of degradation at 2 yr RT ([1]; 2.2 mg/mL): 5.2%
- Degradation at 29 days, 40 C ([1]; 6.7 mg/mL): 9.4%
- Degradation at 29 days, RT ([1]; 6.7 mg/mL): 0.5%
- Predicted extent of degradation at 1 yr 5° C. ([1]; 6.7 mg/mL): 1.7%
- Predicted extent of degradation at 1 yr RT ([1]; 6.7 mg/mL): 7.0%
- Predicted extent of degradation at 2 yr 5° C. ([1]; 6.7 mg/mL): 3.5%
- Predicted extent of degradation at 2 yr RT ([1]; 6.7 mg/mL): 13.9%
- Degradation at 29 days, 40 C ([1]; 20 mg/mL): 26.7%
- Degradation at 29 days, RT ([1]; 20 mg/mL): 0.9%
- Predicted extent of degradation at 1 yr 5° C. ([1]; 20 mg/mL): 2.6%
- Predicted extent of degradation at 1 yr RT ([1]; 20 mg/mL): 10.4%
- Predicted extent of degradation at 2 yr 5° C. ([1]; 20 mg/mL): 5.2%
- Predicted extent of degradation at 2 yr RT ([1]; 20 mg/mL): 20.9%
- Predicted extent of degradation at 1 yr 5° C. ([1]; 66 mg/mL): 25.0%
- Predicted extent of degradation at 1 yr RT ([1]; 66 mg/mL): >100%
- Predicted extent of degradation at 2 yr 5° C. ([1]; 66 mg/mL): 50.1%
- Predicted extent of degradation at 2 yr RT ([1]; 66 mg/mL): >100%
- Extent of degradation at 56 days ([2]; Arg, pH 3.5, 2-8° C.): 0.0%
- Extent of degradation at 56 days ([2]; Arg, pH 3.5, 40° C.): 28%
- Extent of degradation at 56 days ([2]; Arg, pH 3.5, RT): 0.6%
- Predicted extent of degradation After 2 Year Storage at Room Temperature ([2]; Arg, pH 3.5, from 2-8° C. data): 2%
- Predicted extent of degradation After 2 Year Storage at Room Temperature ([2]; Arg, pH 3.5, from 40° C. data): 90%
- Predicted extent of degradation After 2 Year Storage at Room Temperature ([2]; Arg, pH 3.5, from RT data): 7%
- Extent of degradation at 56 days ([2]; Arg, pH 4.5, 2-8° C.): 0.5%
- Extent of degradation at 56 days ([2]; Arg, pH 4.5, 40° C.): 67%
- Extent of degradation at 56 days ([2]; Arg, pH 4.5, RT): 29%
- Predicted extent of degradation After 2 Year Storage at Room Temperature ([2]; Arg, pH 4.5, from 2-8° C. data): 27%
- Predicted extent of degradation After 2 Year Storage at Room Temperature ([2]; Arg, pH 4.5, from 40° C. data): >100%
- Predicted extent of degradation After 2 Year Storage at Room Temperature ([2]; Arg, pH 4.5, from RT data): >100%
- Extent of degradation at 56 days ([2]; DI Water, pH 3.5, 2-8° C.): 0.0%
- Extent of degradation at 56 days ([2]; DI Water, pH 3.5, 40° C.): 8.2%
- Extent of degradation at 56 days ([2]; DI Water, pH 3.5, RT): 1.0%
- Predicted extent of degradation After 2 Year Storage at Room Temperature ([2]; DI Water, pH 3.5, from 2-8° C. data): 1%
- Predicted extent of degradation After 2 Year Storage at Room Temperature ([2]; DI Water, pH 3.5, from 40° C. data): 27%
- Predicted extent of degradation After 2 Year Storage at Room Temperature ([2]; DI Water, pH 3.5, from RT data): 13%
- Extent of degradation at 56 days ([2]; DI Water, pH 4.5, 2-8° C.): 0.7%
- Extent of degradation at 56 days ([2]; DI Water, pH 4.5, 40° C.): 24%
- Extent of degradation at 56 days ([2]; DI Water, pH 4.5, RT): 3.6%
- Predicted extent of degradation After 2 Year Storage at Room Temperature ([2]; DI Water, pH 4.5, from 2-8° C. data): 35%
- Predicted extent of degradation After 2 Year Storage at Room Temperature ([2]; DI Water, pH 4.5, from 40° C. data): 77%
- Predicted extent of degradation After 2 Year Storage at Room Temperature ([2]; DI Water, pH 4.5, from RT data): 47%
- Extent of degradation at 56 days ([2]; Gly, pH 3.5, 2-8° C.): 0.0%
- Extent of degradation at 56 days ([2]; Gly, pH 3.5, 40° C.): 17%
- Extent of degradation at 56 days ([2]; Gly, pH 3.5, RT): 0.6%
- Predicted extent of degradation After 2 Year Storage at Room Temperature ([2]; Gly, pH 3.5, from 2-8° C. data): 3%
- Predicted extent of degradation After 2 Year Storage at Room Temperature ([2]; Gly, pH 3.5, from 40° C. data): 55%
- Predicted extent of degradation After 2 Year Storage at Room Temperature ([2]; Gly, pH 3.5, from RT data): 8%
- Extent of degradation at 56 days ([2]; Gly, pH 4.5, 2-8° C.): 0.6%
- Extent of degradation at 56 days ([2]; Gly, pH 4.5, 40° C.): 28%
- Extent of degradation at 56 days ([2]; Gly, pH 4.5, RT): 6.4%
- Predicted extent of degradation After 2 Year Storage at Room Temperature ([2]; Gly, pH 4.5, from 2-8° C. data): 31%
- Predicted extent of degradation After 2 Year Storage at Room Temperature ([2]; Gly, pH 4.5, from 40° C. data): 90%
- Predicted extent of degradation After 2 Year Storage at Room Temperature ([2]; Gly, pH 4.5, from RT data): 83%
- Extent of degradation at 56 days ([2]; Mannitol, pH 3.5, 2-8° C.): 0.0%
- Extent of degradation at 56 days ([2]; Mannitol, pH 3.5, 40° C.): 4.9%
- Extent of degradation at 56 days ([2]; Mannitol, pH 3.5, RT): 0.5%
- Predicted extent of degradation After 2 Year Storage at Room Temperature ([2]; Mannitol, pH 3.5, from 2-8° C. data): 0%
- Predicted extent of degradation After 2 Year Storage at Room Temperature ([2]; Mannitol, pH 3.5, from 40° C. data): 16%
- Predicted extent of degradation After 2 Year Storage at Room Temperature ([2]; Mannitol, pH 3.5, from RT data): 7%
- Extent of degradation at 56 days ([2]; Mannitol, pH 4.5, 2-8° C.): 0.5%
- Extent of degradation at 56 days ([2]; Mannitol, pH 4.5, 40° C.): 23%
- Extent of degradation at 56 days ([2]; Mannitol, pH 4.5, RT): 2.2%
- Predicted extent of degradation After 2 Year Storage at Room Temperature ([2]; Mannitol, pH 4.5, from 2-8° C. data): 28%
- Predicted extent of degradation After 2 Year Storage at Room Temperature ([2]; Mannitol, pH 4.5, from 40° C. data): 75%
- Predicted extent of degradation After 2 Year Storage at Room Temperature ([2]; Mannitol, pH 4.5, from RT data): 28%
- Extent of degradation at 56 days ([2]; Na2SO4, pH 3.5, 2-8° C.): 0.0%
- Extent of degradation at 56 days ([2]; Na2SO4, pH 3.5, 40° C.): 9.4%
- Extent of degradation at 56 days ([2]; Na2SO4, pH 3.5, RT): 0.4%
- Predicted extent of degradation After 2 Year Storage at Room Temperature ([2]; Na2SO4, pH 3.5, from 2-8° C. data): 2%
- Predicted extent of degradation After 2 Year Storage at Room Temperature ([2]; Na2SO4, pH 3.5, from 40° C. data): 31%
- Predicted extent of degradation After 2 Year Storage at Room Temperature ([2]; Na2SO4, pH 3.5, from RT data): 5%
- Extent of degradation at 56 days ([2]; Na2SO4, pH 4.5, 2-8° C.): 0.4%
- Extent of degradation at 56 days ([2]; Na2SO4, pH 4.5, 40° C.): 30%
- Extent of degradation at 56 days ([2]; Na2SO4, pH 4.5, RT): 51%
- Predicted extent of degradation After 2 Year Storage at Room Temperature ([2]; Na2SO4, pH 4.5, from 2-8° C. data): 22%
- Predicted extent of degradation After 2 Year Storage at Room Temperature ([2]; Na2SO4, pH 4.5, from 40° C. data): 98%
- Predicted extent of degradation After 2 Year Storage at Room Temperature ([2]; Na2SO4, pH 4.5, from RT data): >100%
- Extent of degradation at 56 days ([2]; NaCl, pH 3.5, 2-8° C.): 0.1%
- Extent of degradation at 56 days ([2]; NaCl, pH 3.5, 40° C.): 3.0%
- Extent of degradation at 56 days ([2]; NaCl, pH 3.5, RT): 0.3%
- Predicted extent of degradation After 2 Year Storage at Room Temperature ([2]; NaCl, pH 3.5, from 2-8° C. data): 4%
- Predicted extent of degradation After 2 Year Storage at Room Temperature ([2]; NaCl, pH 3.5, from 40° C. data): 10%
- Predicted extent of degradation After 2 Year Storage at Room Temperature ([2]; NaCl, pH 3.5, from RT data): 4%
- Extent of degradation at 56 days ([2]; NaCl, pH 4.5, 2-8° C.): 1.1%
- Extent of degradation at 56 days ([2]; NaCl, pH 4.5, 40° C.): 18%
- Extent of degradation at 56 days ([2]; NaCl, pH 4.5, RT): 1.8%
- Predicted extent of degradation After 2 Year Storage at Room Temperature ([2]; NaCl, pH 4.5, from 2-8° C. data): 56%
- Predicted extent of degradation After 2 Year Storage at Room Temperature ([2]; NaCl, pH 4.5, from 40° C. data): 58%
- Predicted extent of degradation After 2 Year Storage at Room Temperature ([2]; NaCl, pH 4.5, from RT data): 24%
- solubility (physchem): ≥ 200 mg/mL
